Test results: PubChem BioAssay AID248 (DTP/NCI, 2004)
Values joined by “and” are separate entries in the source; they are usually repeats but may differ in a detail not shown here. Identical values can stand only once. Inconclusive results and toxic doses are left out. Peptide text beside a SMILES is read from it. * marks the point of attachment. Cbz = O=C(OCc1ccccc1)*

System: L1210 leukemia ip in BDF1 mice, survival T/C
Test: NCI In Vivo Anticancer Drug Screen. Data for tumor model L1210 Leukemia (intraperitoneal) in B6D2F1 (BDF1) mice
Conditions: endpoint: mean survival time, higher = longer survival
Method in brief: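 Value reflects the ratio of survival in compound-treated mice to survival in vehicle-treated controls, with both groups carrying the same transplanted tumor.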

[1] = dose: 100.0 mg/kg/injection, schedule: Q01DX001 (ip), vehicle: saline
[2] = dose: 200.0 mg/kg/injection, schedule: Q01DX001 (ip), vehicle: saline
[3] = dose: 400.0 mg/kg/injection, schedule: Q01DX001 (ip), vehicle: saline
[4] = dose: 100.0 mg/kg/injection, schedule: Q01DX001 (ip), vehicle: saline with Tween-80
[5] = dose: 200.0 mg/kg/injection, schedule: Q01DX001 (ip), vehicle: saline with Tween-80
[6] = dose: 100.0 mg/kg/injection, schedule: Q04DX003 (ip), vehicle: Klucel (hydroxypropylcellulose) (HPC)
[7] = dose: 200.0 mg/kg/injection, schedule: Q04DX003 (ip), vehicle: Klucel (hydroxypropylcellulose) (HPC)
[8] = dose: 400.0 mg/kg/injection, schedule: Q04DX003 (ip), vehicle: Klucel (hydroxypropylcellulose) (HPC)
[9] = dose: 100.0 mg/kg/injection, schedule: Q01DX009 (ip), vehicle: Klucel (hydroxypropylcellulose) (HPC)
[10] = dose: 200.0 mg/kg/injection, schedule: Q01DX009 (ip), vehicle: Klucel (hydroxypropylcellulose) (HPC)
[11] = dose: 400.0 mg/kg/injection, schedule: Q01DX009 (ip), vehicle: Klucel (hydroxypropylcellulose) (HPC)
[12] = dose: 100.0 mg/kg/injection, schedule: Q04DX002 (ip), vehicle: Klucel (hydroxypropylcellulose) (HPC)
[13] = dose: 100.0 mg/kg/injection, schedule: Q04DX003 (ip), vehicle: saline
[14] = dose: 25.0 mg/kg/injection, schedule: Q04DX003 (ip), vehicle: saline
[15] = dose: 50.0 mg/kg/injection, schedule: Q04DX003 (ip), vehicle: saline
[16] = dose: 200.0 mg/kg/injection, schedule: Q04DX002 (ip), vehicle: Klucel (hydroxypropylcellulose) (HPC)
[17] = dose: 400.0 mg/kg/injection, schedule: Q04DX002 (ip), vehicle: Klucel (hydroxypropylcellulose) (HPC)
[18] = dose: 200.0 mg/kg/injection, schedule: Q04DX002 (ip), vehicle: saline with Tween-80
[19] = dose: 400.0 mg/kg/injection, schedule: Q04DX002 (ip), vehicle: saline with Tween-80

SMILES: Clc1ccc2[nH]c(-c3ccccc3)c(-c3ccccc3)c2c1
- T/C [1]: 92 % of control
- T/C (dose: 100.0 mg/kg/injection, schedule: Q01DX009 (ip), vehicle: acetone): 102 % of control
- T/C [2]: 89 % of control
- T/C (dose: 200.0 mg/kg/injection, schedule: Q01DX009 (ip), vehicle: acetone): 102 % of control
- T/C [3]: 96 % of control

SMILES: O=C1Nc2ccccc2C12Nc1cccnc1N2 (stereo not drawn)
- T/C [4]: 97 % of control
- T/C [5]: 87 % of control

SMILES: O=C(O)/C=C/c1c2ccc(=O)cc-2oc2cc(O)ccc12
- T/C [6]: 96 % of control
- T/C [7]: 91 % of control
- T/C [8]: 105 % of control

SMILES: COc1ccc(OC)c(NC(=O)Oc2ccc3c(C)cc(=O)oc3c2)c1
- T/C [9]: 101 % of control
- T/C [10]: 97 % of control
- T/C [11]: 87 % of control

SMILES: CCOC(=O)/C(C#N)=C1\CCc2cc(OC)ccc21
- T/C [1]: 96 % of control
- T/C (dose: 100.0 mg/kg/injection, schedule: Q01DX009 (ip), vehicle: other): 103 % of control
- T/C [2]: 90 % of control
- T/C (dose: 200.0 mg/kg/injection, schedule: Q01DX009 (ip), vehicle: other): 99 % of control
- T/C [3]: 92 % of control
- T/C (dose: 400.0 mg/kg/injection, schedule: Q01DX009 (ip), vehicle: other): 97 % of control

SMILES: C1=CC2CCC(C1)C21OCCO1 (stereo not drawn)
- T/C (dose: 100.0 mg/kg/injection, schedule: Q01DX009 (ip), vehicle: saline): 92 % of control
- T/C (dose: 100.0 mg/kg/injection, schedule: Q04DX003 (ip), vehicle: alcohol): 108 % of control
- T/C (dose: 200.0 mg/kg/injection, schedule: Q01DX009 (ip), vehicle: saline): 96 % of control
- T/C (dose: 200.0 mg/kg/injection, schedule: Q04DX003 (ip), vehicle: alcohol): 108 % of control
- T/C (dose: 400.0 mg/kg/injection, schedule: Q01DX009 (ip), vehicle: saline): 94 % of control
- T/C (dose: 400.0 mg/kg/injection, schedule: Q04DX003 (ip), vehicle: alcohol): 97 % of control

SMILES: Nc1ncccn1
- T/C [6]: 101 % of control
- T/C [7]: 93 % of control
- T/C [8]: 101 % of control

SMILES: COc1ccc(O)c2c(C(=O)c3ccccc3)c[nH]c12
- T/C (dose: 25.0 mg/kg/injection, schedule: Q04DX002 (ip), vehicle: Klucel (hydroxypropylcellulose) (HPC)): 87 % of control
- T/C (dose: 50.0 mg/kg/injection, schedule: Q04DX002 (ip), vehicle: Klucel (hydroxypropylcellulose) (HPC)): 95 % of control
- T/C [12]: 95 % of control

SMILES: Nc1cccc(CCc2nc(N)nc(N)c2-c2ccc(Cl)cc2)c1
- T/C [4]: 97 % of control
- T/C [5]: 95 % of control
- T/C (dose: 400.0 mg/kg/injection, schedule: Q01DX001 (ip), vehicle: saline with Tween-80): 101 % of control

SMILES: N#CC(C(=O)c1ccccc1)=C([SH2+])[SH2+].N#CC(C(=O)c1ccccc1)=C([SH2+])[SH2+].[Cu+2].c1ccc([AsH](c2ccccc2)(c2ccccc2)c2ccccc2)cc1
- T/C [1]: 103 % of control
- T/C [13]: 100 % of control
- T/C [2]: 105 % of control
- T/C (dose: 200.0 mg/kg/injection, schedule: Q04DX003 (ip), vehicle: saline): 96 % of control
- T/C [3]: 98 % of control
- T/C (dose: 400.0 mg/kg/injection, schedule: Q04DX003 (ip), vehicle: saline): 98 % of control

SMILES: COc1c2ccccc2nc2ccccc12
- T/C (dose: 100.0 mg/kg/injection, schedule: Q04DX003 (ip), vehicle: saline with Tween-80): 93 % of control
- T/C (dose: 200.0 mg/kg/injection, schedule: Q04DX003 (ip), vehicle: saline with Tween-80): 91 % of control
- T/C (dose: 400.0 mg/kg/injection, schedule: Q04DX003 (ip), vehicle: saline with Tween-80): 95 % of control

SMILES: CCOC(=O)CCC(NC(=O)C(CCC(=O)O)NC(=O)OCc1ccccc1)C(=O)OCC (stereo not drawn) (Cbz-Glu-Glu(OEt)-OEt; configuration not given here)
- T/C [6]: 94 % of control
- T/C [7]: 101 % of control
- T/C [8]: 96 % of control

SMILES: CCN(CC)c1ccc(/C=C(/S)C(=O)O)cc1
- T/C [1]: 89 % of control
- T/C [2]: 92 % of control
- T/C [3]: 92 % of control

SMILES: ClCCN1CCOCC1
- T/C (dose: 25.0 mg/kg/injection, schedule: Q01DX009 (ip), vehicle: saline): 97 % of control
- T/C [14]: 93 % of control and 106 % of control
- T/C (dose: 50.0 mg/kg/injection, schedule: Q01DX009 (ip), vehicle: saline): 100 % of control
- T/C [15]: 93 % of control and 111 % of control
- T/C [13]: 98 % of control and 104 % of control and 108 % of control

SMILES: CCOC(=O)N1CCN(P(=O)(c2ccccc2)N2CCN(C(=O)OCC)CC2)CC1
- T/C [9]: 93 % of control
- T/C [10]: 93 % of control
- T/C [11]: 96 % of control

SMILES: CC12CCC(=O)C3C1CCCC32
- T/C (dose: 100.0 mg/kg/injection, schedule: Q01DX001 (ip), vehicle: carboxymethylcellulose (CMC)): 100 % of control
- T/C (dose: 200.0 mg/kg/injection, schedule: Q01DX001 (ip), vehicle: carboxymethylcellulose (CMC)): 111 % of control
- T/C (dose: 400.0 mg/kg/injection, schedule: Q01DX001 (ip), vehicle: carboxymethylcellulose (CMC)): 103 % of control

SMILES: O=S1c2ccccc2Oc2ccccc21
- T/C [12]: 108 % of control
- T/C [16]: 108 % of control
- T/C [17]: 108 % of control

SMILES: COc1ccc(NC(=S)Nc2ccccc2)cc1
- T/C (dose: 100.0 mg/kg/injection, schedule: Q04DX002 (ip), vehicle: saline with Tween-80): 101 % of control
- T/C [18]: 108 % of control
- T/C [19]: 108 % of control

SMILES: Clc1ccc(N2CCNCC2)cc1
- T/C (dose: 75.0 mg/kg/injection, schedule: Q01DX001 (ip), vehicle: saline): 101 % of control

SMILES: CC(=O)/C=N/Nc1ccccc1
- T/C (dose: 25.0 mg/kg/injection, schedule: Q01DX009 (ip), vehicle: Klucel (hydroxypropylcellulose) (HPC)): 93 % of control
- T/C (dose: 50.0 mg/kg/injection, schedule: Q01DX009 (ip), vehicle: Klucel (hydroxypropylcellulose) (HPC)): 97 % of control
- T/C (dose: 50.0 mg/kg/injection, schedule: Q04DX003 (ip), vehicle: carboxymethylcellulose (CMC)): 110 % of control
- T/C [9]: 97 % of control
- T/C (dose: 100.0 mg/kg/injection, schedule: Q04DX003 (ip), vehicle: carboxymethylcellulose (CMC)): 106 % of control

SMILES: CN(N=O)C(=O)Nc1ccc(C(=O)O)cc1
- T/C (dose: 12.0 mg/kg/injection, schedule: Q01DX Z (ip), vehicle: carboxymethylcellulose (CMC)): 183 % of control
- T/C (dose: 17.6 mg/kg/injection, schedule: Q01DX Z (ip), vehicle: carboxymethylcellulose (CMC)): 190 % of control
- T/C (dose: 26.4 mg/kg/injection, schedule: Q01DX Z (ip), vehicle: carboxymethylcellulose (CMC)): 209 % of control
- T/C (dose: 40.0 mg/kg/injection, schedule: Q01DX Z (ip), vehicle: carboxymethylcellulose (CMC)): 188 % of control and 218 % of control
- T/C (dose: 60.0 mg/kg/injection, schedule: Q01DX Z (ip), vehicle: carboxymethylcellulose (CMC)): 118 % of control and 87 % of control
- T/C (dose: 80.0 mg/kg/injection, schedule: Q01DX Z (ip), vehicle: carboxymethylcellulose (CMC)): 98 % of control

SMILES: O=C(O)c1ccccc1Cc1ccccc1
- T/C [12]: 94 % of control
- T/C [16]: 98 % of control
- T/C [17]: 100 % of control

SMILES: CCCCCCCCCCCC[N+]1([O-])CCOCC1
- T/C [18]: 94 % of control
- T/C [19]: 102 % of control

SMILES: CC(=O)OC1CCC2(C)C(CCC3C2CC(=O)C2(C)C3CC(N3CC3)C2C(C)=O)C1 (stereo not drawn)
- T/C (dose: 100.0 mg/kg/injection, schedule: Q01DX001 (sc), vehicle: steriod suspending solution): 89 % of control
- T/C (dose: 200.0 mg/kg/injection, schedule: Q01DX001 (sc), vehicle: steriod suspending solution): 99 % of control
- T/C (dose: 400.0 mg/kg/injection, schedule: Q01DX001 (sc), vehicle: steriod suspending solution): 99 % of control

SMILES: CCCCCCCCCCCC(=O)N(C)CC(=O)O
- T/C [1]: 96 % of control

SMILES: C[N+](C)(C)CCCNC(=O)Nc1ccc(Cl)cc1
- T/C (dose: 3.13 mg/kg/injection, schedule: Q04DX002 (ip), vehicle: saline): 102 % of control
- T/C (dose: 6.25 mg/kg/injection, schedule: Q04DX002 (ip), vehicle: saline): 117 % of control
- T/C (dose: 12.5 mg/kg/injection, schedule: Q04DX002 (ip), vehicle: saline): 106 % of control

SMILES: O=C(COc1ccc(Cl)c(Cl)c1)NCc1ccc[n+](Cc2ccc(Cl)c(S(=O)(=O)F)c2)c1
- T/C [14]: 114 % of control
- T/C [15]: 118 % of control
- T/C [13]: 100 % of control and 112 % of control
